In PubChem BioAssay AID328 (DTP/NCI, 2004):
Values joined by “and” are separate entries in the source; they are usually repeats but may differ in a detail not shown here. Identical values can stand only once. Inconclusive results and toxic doses are left out.

Test system: BDF1 mice, P388 leukemia ip, median survival T/C
Experiment: NCI In Vivo Anticancer Drug Screen. Data for tumor model P388 Leukemia (intraperitoneal) in B6D2F1 (BDF1) mice
Conditions: endpoint: median survival time, higher = longer survival
How it was run: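 Survival ratio, drug arm over vehicle arm, in mice with a transplanted tumour.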

[1] = dose: 25.0 mg/kg/injection, schedule: Q04DX003 (ip), vehicle: saline
[2] = dose: 50.0 mg/kg/injection, schedule: Q04DX003 (ip), vehicle: saline
[3] = dose: 100.0 mg/kg/injection, schedule: Q04DX003 (ip), vehicle: saline
[4] = dose: 200.0 mg/kg/injection, schedule: Q04DX003 (ip), vehicle: saline
[5] = dose: 25.0 mg/kg/injection, schedule: Q01DX009 (ip), vehicle: saline
[6] = dose: 50.0 mg/kg/injection, schedule: Q01DX009 (ip), vehicle: saline
[7] = dose: 100.0 mg/kg/injection, schedule: Q01DX009 (ip), vehicle: saline
[8] = dose: 400.0 mg/kg/injection, schedule: Q04DX003 (ip), vehicle: saline with Tween-80
[9] = dose: 100.0 mg/kg/injection, schedule: Q01DX009 (ip), vehicle: saline with Tween-80
[10] = dose: 200.0 mg/kg/injection, schedule: Q01DX009 (ip), vehicle: saline with Tween-80
[11] = dose: 12.5 mg/kg/injection, schedule: Q01DX009 (ip), vehicle: saline
[12] = dose: 12.5 mg/kg/injection, schedule: Q04DX003 (ip), vehicle: saline
[13] = dose: 100.0 mg/kg/injection, schedule: Q04DX003 (ip), vehicle: saline with Tween-80
[14] = dose: 200.0 mg/kg/injection, schedule: Q04DX003 (ip), vehicle: saline with Tween-80
[15] = dose: 400.0 mg/kg/injection, schedule: Q01DX009 (ip), vehicle: saline with Tween-80
[16] = dose: 100.0 mg/kg/injection, schedule: Q01DX009 (ip), vehicle: Klucel (hydroxypropylcellulose) (HPC)
[17] = dose: 200.0 mg/kg/injection, schedule: Q01DX009 (ip), vehicle: Klucel (hydroxypropylcellulose) (HPC)
[18] = dose: 50.0 mg/kg/injection, schedule: Q01DX009 (ip), vehicle: saline with Tween-80
[19] = dose: 6.25 mg/kg/injection, schedule: Q04DX003 (ip), vehicle: saline
[20] = dose: 100.0 mg/kg/injection, schedule: Q04DX003 (ip), vehicle: Klucel (hydroxypropylcellulose) (HPC)
[21] = dose: 200.0 mg/kg/injection, schedule: Q04DX003 (ip), vehicle: Klucel (hydroxypropylcellulose) (HPC)
[22] = dose: 400.0 mg/kg/injection, schedule: Q01DX009 (ip), vehicle: Klucel (hydroxypropylcellulose) (HPC)

Cc1c(C)c2ccc(N)cc2[nH]c1=O
T/C (dose: 2.0 mg/kg/injection, schedule: Q01DX009 (ip), vehicle: saline): 118 % of control
T/C (dose: 4.0 mg/kg/injection, schedule: Q01DX009 (ip), vehicle: saline): 105 % of control
T/C (dose: 8.0 mg/kg/injection, schedule: Q01DX009 (ip), vehicle: saline): 99 % of control
T/C (dose: 16.0 mg/kg/injection, schedule: Q01DX009 (ip), vehicle: saline): 118 % of control
T/C [1]: 98 % of control
T/C [2]: 106 % of control
T/C [3]: 106 % of control
T/C [4]: 104 % of control
T/C (dose: 400.0 mg/kg/injection, schedule: Q04DX003 (ip), vehicle: saline): 107 % of control

O=C(Nc1ccc(S(=O)(=O)O)cc1)c1ccc([N+](=O)[O-])cc1
T/C [5]: 100 % of control
T/C [6]: 100 % of control
T/C [7]: 100 % of control
T/C [3]: 100 % of control
T/C (dose: 176.0 mg/kg/injection, schedule: Q04DX003 (ip), vehicle: saline with Tween-80): 100 % of control
T/C [4]: 100 % of control
T/C (dose: 264.0 mg/kg/injection, schedule: Q04DX003 (ip), vehicle: saline with Tween-80): 110 % of control
T/C (dose: 264.0 mg/kg/injection, schedule: Q04DX003 (ip), vehicle: saline): 95 % of control and 120 % of control
T/C [8]: 100 % of control

O=C(O)C1CCCC2C(O)CCC(=O)C12 (stereo not given)
T/C [9]: 100 % of control
T/C [10]: 109 % of control

COc1cc2cc[n+]3c(C)c4cc5c(cc4cc3c2cc1OC)OCO5 (tested in a mixture with another compound)
T/C (dose: 2.2 mg/kg/injection, schedule: Q01DX009 (ip), vehicle: saline): 158 % of control
T/C (dose: 3.3 mg/kg/injection, schedule: Q01DX009 (ip), vehicle: saline): 163 % of control
T/C (dose: 5.0 mg/kg/injection, schedule: Q01DX009 (ip), vehicle: saline): 174 % of control
T/C (dose: 7.5 mg/kg/injection, schedule: Q01DX009 (ip), vehicle: saline): 186 % of control
T/C [11]: 230 % of control
T/C [5]: 123 % of control
T/C [6]: 102 % of control

CC(CN)OCc1ccccc1 (stereo not given)
T/C [12]: 100 % of control
T/C [2]: 100 % of control

CC(C)Cc1[nH]nc2c1C(=O)C(Nc1ccccc1)=CC2=O
T/C [13]: 99 % of control
T/C [14]: 100 % of control
T/C [8]: 100 % of control

C=CCC(CC)C(=O)Cl (stereo not given)
T/C [9]: 109 % of control
T/C [13]: 111 % of control
T/C [10]: 100 % of control
T/C [14]: 110 % of control
T/C [15]: 100 % of control
T/C [8]: 105 % of control and 110 % of control

CC(C)(C)c1cccc(C(C)(C)C)c1OC(=O)NS(=O)(=O)c1ccccc1
T/C [12]: 111 % of control
T/C [1]: 105 % of control
T/C [2]: 100 % of control
T/C (dose: 75.0 mg/kg/injection, schedule: Q04DX003 (ip), vehicle: Klucel (hydroxypropylcellulose) (HPC)): 104 % of control
T/C (dose: 115.0 mg/kg/injection, schedule: Q04DX003 (ip), vehicle: Klucel (hydroxypropylcellulose) (HPC)): 104 % of control

O=S1(=O)CCN(Cc2ccccc2)CC1
T/C (dose: 50.0 mg/kg/injection, schedule: Q01DX009 (ip), vehicle: Klucel (hydroxypropylcellulose) (HPC)): 96 % of control
T/C [16]: 96 % of control
T/C [17]: 91 % of control

C[n+]1c(-c2ccccc2)c2cc(N)ccc2c2ccccc21
T/C (dose: 3.1 mg/kg/injection, schedule: Q04DX003 (ip), vehicle: saline): 110 % of control
T/C (dose: 6.6 mg/kg/injection, schedule: Q01DX009 (ip), vehicle: saline): 153 % of control
T/C (dose: 10.0 mg/kg/injection, schedule: Q01DX009 (ip), vehicle: saline): 165 % of control and 181 % of control
T/C (dose: 10.0 mg/kg/injection, schedule: Q04DX003 (ip), vehicle: saline): 122 % of control

Br/C(C=Nc1ccccc1)=C\Nc1ccccc1
T/C [9]: 100 % of control
T/C [10]: 110 % of control

O=N[O-].O=N[O-].O=N[O-].[Co+3].[NH-]CC[N-]CC[NH-]
T/C [18]: 111 % of control

CCOC(=O)C(OCc1ccccc1)(C(=O)O)C(C)C (stereo not given)
T/C (dose: 25.0 mg/kg/injection, schedule: Q01DX009 (ip), vehicle: saline with Tween-80): 95 % of control
T/C [18]: 90 % of control
T/C [9]: 109 % of control
T/C [10]: 100 % of control
T/C [15]: 104 % of control

CC1(C)O[C@]2(C)CC[C@@H]1[C@@H](O)[C@@H]2N1CCOCC1
T/C (dose: 50.0 mg/kg/injection, schedule: Q01DX005 (ip), vehicle: saline): 108 % of control
T/C (dose: 100.0 mg/kg/injection, schedule: Q01DX005 (ip), vehicle: saline): 106 % of control
T/C (dose: 200.0 mg/kg/injection, schedule: Q01DX005 (ip), vehicle: saline): 104 % of control

c1ccc2sc(SNC3CCCCC3)nc2c1
T/C (dose: 200.0 mg/kg/injection, schedule: Q04DX002 (ip), vehicle: saline): 103 % of control
T/C (dose: 400.0 mg/kg/injection, schedule: Q04DX002 (ip), vehicle: saline): 122 % of control

CCOC(=O)c1cnn(-c2ccccc2)c1N
T/C [19]: 110 % of control
T/C [11]: 102 % of control
T/C [12]: 107 % of control
T/C [5]: 96 % of control
T/C [1]: 100 % of control
T/C [18]: 243 % of control
T/C [6]: 96 % of control and 104 % of control
T/C [2]: 100 % of control
T/C [16]: 104 % of control
T/C [9]: 241 % of control
T/C [7]: 104 % of control and 105 % of control
T/C [20]: 95 % of control
T/C [3]: 95 % of control
T/C [17]: 95 % of control
T/C [10]: 91 % of control
T/C (dose: 200.0 mg/kg/injection, schedule: Q01DX009 (ip), vehicle: saline): 86 % of control
T/C [21]: 100 % of control
T/C [22]: 86 % of control
T/C (dose: 400.0 mg/kg/injection, schedule: Q04DX003 (ip), vehicle: Klucel (hydroxypropylcellulose) (HPC)): 87 % of control

CC[C@H]1OC(=O)[C@H](C)[C@@H](OC2CC(C)(OC)C(OC(=O)CCCC(=O)O)C(C)O2)[C@H](C)[C@@H](OC2OC(C)CC(N(C)C)C2O)[C@](C)(O)C[C@@H](C)C(=O)[C@H](C)[C@@H](O)[C@]1(C)O (stereo not given in full)
T/C (dose: 7.5 mg/kg/injection, schedule: Q01DX009 (ip), vehicle: Klucel (hydroxypropylcellulose) (HPC)): 111 % of control
T/C (dose: 15.0 mg/kg/injection, schedule: Q01DX009 (ip), vehicle: Klucel (hydroxypropylcellulose) (HPC)): 101 % of control
T/C (dose: 30.0 mg/kg/injection, schedule: Q01DX009 (ip), vehicle: Klucel (hydroxypropylcellulose) (HPC)): 97 % of control
T/C (dose: 60.0 mg/kg/injection, schedule: Q01DX009 (ip), vehicle: Klucel (hydroxypropylcellulose) (HPC)): 111 % of control

CCc1cc(CC)n2cnnc2n1
T/C [6]: 89 % of control
T/C [7]: 89 % of control

O=c1[nH]cc(CCc2ccccc2)c(=O)[nH]1
T/C (dose: 100.0 mg/kg/injection, schedule: Q01DX001 (ip), vehicle: Klucel (hydroxypropylcellulose) (HPC)): 105 % of control
T/C [16]: 100 % of control
T/C [20]: 104 % of control
T/C [17]: 88 % of control
T/C [21]: 100 % of control
T/C (dose: 400.0 mg/kg/injection, schedule: Q01DX001 (ip), vehicle: Klucel (hydroxypropylcellulose) (HPC)): 105 % of control
T/C [22]: 92 % of control

CCCCCCCCCCCCCCCCOc1ccc(Cl)cc1
T/C (dose: 25.0 mg/kg/injection, schedule: Q01DX001 (ip), vehicle: saline sonified): 109 % of control
T/C (dose: 50.0 mg/kg/injection, schedule: Q01DX001 (ip), vehicle: saline sonified): 100 % of control

O/N=C1/CCCc2ccccc21
T/C [9]: 86 % of control
T/C [10]: 86 % of control
T/C [15]: 86 % of control

CCO/C=C1\SC(=S)N(c2cccc(OC)c2)C1=O
T/C [13]: 122 % of control

O=C(CBr)c1cccnc1
T/C [19]: 104 % of control
T/C [12]: 104 % of control
T/C [1]: 95 % of control

CC(OC(=O)Nc1ccccc1)C(=O)O (stereo not given)
T/C [9]: 88 % of control
T/C [10]: 92 % of control
T/C [15]: 103 % of control

C=C(C)C(=O)/C(=C/C(=O)O)OC
T/C (dose: 12.5 mg/kg/injection, schedule: Q01DX010 (ip), vehicle: saline): 113 % of control
T/C (dose: 25.0 mg/kg/injection, schedule: Q01DX010 (ip), vehicle: saline): 109 % of control
T/C (dose: 50.0 mg/kg/injection, schedule: Q01DX010 (ip), vehicle: saline): 118 % of control
